Test results taken from patent US20250026716A1, “SYNTHESIS PROCESS OF FATTY ACYL TAURINE SALT” (ZHANGJIAGANG GREAT CHEMICAL CO., LTD., priority 2021, published 2025).

How the values were obtained:
[1] = Foaming performance test (foam volume, mixing method); type: physicochemical; details: 2 g of sample, 150 mg/kg hard water to 500 mL, stirring 30 s at 1000 rpm
Protocol: For further comparison, foaming performance tests are conducted on products of Examples 12-13 and Comparative Examples 16-17, and the test results are shown in Table 12.

[2] = system: chicken embryo chorioallantoic membrane; assay: Irritancy (stimulus) test, chicken embryo chorioallantoic membrane method

SMILES: CCCCCCCCCCCC(=O)NCCS(=O)(=O)O.[Na] [Example 12, sodium lauroyl taurine]
- Foam volume [1]: 1240 mL

SMILES: CCCCCCCCCCCC(=O)NCCS(=O)(=O)O.[Na] [Comparative Example 16, sodium lauroyl taurine, reference compound]
- Foam volume [1]: 860 mL

SMILES: CCCCCCCCCCCC(=O)NCCS(=O)(=O)O.[Na] [Example 2, sodium lauroyl taurine]
- Bleeding time [2]: 41.5
- IS value [2]: 4.33
